# In US20230072854A1, “PARAXANTHINE-BASED BIOACTIVE COMPOSITION AND METHOD OF USE THEREOF” (Ingenious Ingredients, LP, priority 2020, published 2023):
# Columns and labels:
# [1] = tested on: volunteers; test: Sternberg task test, double blind crossover vs placebo; format: in vivo, human; conditions: 200 mg; for Sternberg Mean Response Time: in ms (unit assumed)
# From the text: (§1) In a double blind, randomized, crossover, and repeated measures manner, 13 volunteers (10 male, 3 female, average age 24±5 years, average body weight 72.91±19.30 kg, average height 169.96±11.84 cm, average BMI 24.80±3.71 kg/m^2) participated in this study. Participants limited ingestion of caffeine and other stimulants to normal use for 48-hours, fasted for 8-hours and reported to the lab and completed 4 different cognitive function tests to assess short-term attention and inhibitory control (Go-No Go Test), sustained attention (Vigilance Task Test), working memory (Sternberg Task Test) and cognitive flexibility (Berg-Washington Card Sorting Test). Once completed, the participants ingested either a placebo or 200 mg of paraxanthine (WGI, TX, USA) with 8 ounces of water. Participants repeated cognitive function tests 1, 2, 3, 4, 5, and 6 hours after ingestion of the supplement. After one-week participants repeated the experiment while consuming the other treatment.
# (§2) Data were analyzed by a General Linear Model multivariate and univariate analyses with repeated measures using body weight as a covariate. Data are expressed as means±standard deviations for the placebo (PLA) and Paraxanthine (PrX). Greenhouse-Geisser univariate p-levels are listed for time (T), weight×time (W×T) and group×time (G×T) interactions effects. Pairwise comparison is indicated by the following superscripts: †=[…] difference from baseline value; *=[…] difference from baseline; a=[…] difference between groups; b=[…] difference between groups. Eta2 vaules of […] are considered small, […] medium, and >0.14 are considered large.
# A test of working memory, ability to make use of short-term memory. A lower reaction time means participants can access their working memory faster. The Sternberg Task test is a widely used paradigm for studying short-term/working memory (STM/WM) involving cognitive control processes.
# [2] = tested on: volunteers; test: Psychomotor vigilance task test, double blind crossover vs placebo; format: in vivo, human; conditions: 200 mg
# From the text: as §1, §2
# The psychomotor vigilance task test is a sustained attention, reaction timed task that measures the speed with which participants respond to a visual stimulus. Lower Reaction time, especially maintained throughout this many tests represents better ability to sustain attention.
# [3] = Toxicity, LD50; conditions: in vivo
structure (smiles),measurement,setting,value
"Cn1c(=O)[nH]c2ncn(C)c2c1=O [paraxanthine, 1,7-dimethylxanthine]",letter length 2 present reaction time (FIG. 18),[1],significantly improved reaction times
same,letter length 4 absent reaction time (FIG. 16),[1],no significant differences over time or between treatments
same,letter length 4 present reaction time (FIG. 19),[1],"no significant differences over time or between treatments, with Paraxanthine showing greater improvements during hours 3-6"
same,letter length 6 absent reaction time (FIG. 17),[1],"no significant differences over time or between treatments, with Paraxanthine showing greater improvement during hours 3-5"
same,Letter Length 2: Absent Reaction Time (Millisecond),[1]; Mean (SEM) over all hours,577.6 ± 27.1 Millisecond
same,Letter Length 2: Present Reaction Time (Millisecond),[1]; Mean (SEM) over all hours,503.5 ± 17.8 Millisecond
same,Letter Length 4: Absent Reaction Time (Millisecond),[1]; Mean (SEM) over all hours,741.3 ± 40.0 Millisecond
same,Letter Length 4: Present Reaction Time (Millisecond),[1]; Mean (SEM) over all hours,617.9 ± 25.1 Millisecond
same,Letter Length 6: Absent Reaction Time (Millisecond),[1]; Mean (SEM) over all hours,970.0 ± 55.7 Millisecond
same,Letter Length 6: Present Reaction Time (Millisecond),[1]; Mean (SEM) over all hours,808.2 ± 40.2 Millisecond
same,Sternberg Mean Response Time,[1]; Mean (SEM) over all hours,703.1 ± 32.4
same,"short-term/working memory, letter length 6 present reaction time",[1]; after 4 and 5 hours,significantly increased short-term/working memory
same,Letter Length 2: Absent Reaction Time (Millisecond),[1]; hour 0 (before ingestion),621.9 ± 154.3 Millisecond
same,Letter Length 2: Present Reaction Time (Millisecond),[1]; hour 0 (before ingestion),541.1 ± 104.2 Millisecond
same,Letter Length 4: Absent Reaction Time (Millisecond),[1]; hour 0 (before ingestion),748.7 ± 148.5 Millisecond
same,Letter Length 4: Present Reaction Time (Millisecond),[1]; hour 0 (before ingestion),625.9 ± 100.6 Millisecond
same,Letter Length 6: Absent Reaction Time (Millisecond),[1]; hour 0 (before ingestion),"1,012.5 ± 334.2 Millisecond"
same,Letter Length 6: Present Reaction Time (Millisecond),[1]; hour 0 (before ingestion),841.6 ± 254.0 Millisecond
same,Sternberg Mean Response Time,[1]; hour 0 (before ingestion),731.9 ± 163.0
same,Letter Length 2: Absent Reaction Time (Millisecond),[1]; hour 1 after ingestion,596.7 Millisecond
same,Letter Length 2: Present Reaction Time (Millisecond),[1]; hour 1 after ingestion,516.6 Millisecond
same,Letter Length 4: Absent Reaction Time (Millisecond),[1]; hour 1 after ingestion,755.5 Millisecond
same,Letter Length 4: Present Reaction Time (Millisecond),[1]; hour 1 after ingestion,642.9 Millisecond
same,Letter Length 6: Absent Reaction Time (Millisecond),[1]; hour 1 after ingestion,986.5 Millisecond
same,Letter Length 6: Present Reaction Time (Millisecond),[1]; hour 1 after ingestion,829.7 Millisecond
same,Sternberg Mean Response Time,[1]; hour 1 after ingestion,721.3
same,Letter Length 2: Absent Reaction Time (Millisecond),[1]; hour 2 after ingestion,579.7 Millisecond
same,Letter Length 2: Present Reaction Time (Millisecond),[1]; hour 2 after ingestion,503.8 Millisecond
same,Letter Length 4: Absent Reaction Time (Millisecond),[1]; hour 2 after ingestion,758.4 Millisecond
same,Letter Length 4: Present Reaction Time (Millisecond),[1]; hour 2 after ingestion,614.7 Millisecond
same,Letter Length 6: Absent Reaction Time (Millisecond),[1]; hour 2 after ingestion,"1,011.3 Millisecond"
same,Letter Length 6: Present Reaction Time (Millisecond),[1]; hour 2 after ingestion,800.0 Millisecond
same,Sternberg Mean Response Time,[1]; hour 2 after ingestion,711.3
same,letter length 2 absent reaction time (FIG. 15),"[1]; hour 3, 4 and 5",trend towards improved reaction times
same,Letter Length 2: Absent Reaction Time (Millisecond),[1]; hour 3 after ingestion,559.3 Millisecond
same,Letter Length 2: Present Reaction Time (Millisecond),[1]; hour 3 after ingestion,497.1 Millisecond
same,Letter Length 4: Absent Reaction Time (Millisecond),[1]; hour 3 after ingestion,762.3 Millisecond
same,Letter Length 4: Present Reaction Time (Millisecond),[1]; hour 3 after ingestion,634.6 Millisecond
same,Letter Length 6: Absent Reaction Time (Millisecond),[1]; hour 3 after ingestion,980.9 Millisecond
same,Letter Length 6: Present Reaction Time (Millisecond),[1]; hour 3 after ingestion,830.6 Millisecond
same,Sternberg Mean Response Time,[1]; hour 3 after ingestion,710.8
same,Letter Length 2: Absent Reaction Time (Millisecond),[1]; hour 4 after ingestion,553.8 Millisecond
same,Letter Length 2: Present Reaction Time (Millisecond),[1]; hour 4 after ingestion,488.3 Millisecond
same,Letter Length 4: Absent Reaction Time (Millisecond),[1]; hour 4 after ingestion,701.3 Millisecond
same,Letter Length 4: Present Reaction Time (Millisecond),[1]; hour 4 after ingestion,598.2 Millisecond
same,Letter Length 6: Absent Reaction Time (Millisecond),[1]; hour 4 after ingestion,914.8 Millisecond
same,Letter Length 6: Present Reaction Time (Millisecond),[1]; hour 4 after ingestion,778.1 Millisecond
same,Sternberg Mean Response Time,[1]; hour 4 after ingestion,672.4
same,Letter Length 2: Absent Reaction Time (Millisecond),[1]; hour 5 after ingestion,558.8 Millisecond
same,Letter Length 2: Present Reaction Time (Millisecond),[1]; hour 5 after ingestion,490.3 Millisecond
same,Letter Length 4: Absent Reaction Time (Millisecond),[1]; hour 5 after ingestion,717.5 Millisecond
same,Letter Length 4: Present Reaction Time (Millisecond),[1]; hour 5 after ingestion,617.1 Millisecond
same,Letter Length 6: Absent Reaction Time (Millisecond),[1]; hour 5 after ingestion,913.5 Millisecond
same,Letter Length 6: Present Reaction Time (Millisecond),[1]; hour 5 after ingestion,761.8 Millisecond
same,Sternberg Mean Response Time,[1]; hour 5 after ingestion,676.5
same,Letter Length 2: Absent Reaction Time (Millisecond),[1]; hour 6 after ingestion,568.9 Millisecond
same,Letter Length 2: Present Reaction Time (Millisecond),[1]; hour 6 after ingestion,483.8 Millisecond
same,Letter Length 4: Absent Reaction Time (Millisecond),[1]; hour 6 after ingestion,742.2 Millisecond
same,Letter Length 4: Present Reaction Time (Millisecond),[1]; hour 6 after ingestion,590.3 Millisecond
same,Letter Length 6: Absent Reaction Time (Millisecond),[1]; hour 6 after ingestion,970.7 Millisecond
same,Letter Length 6: Present Reaction Time (Millisecond),[1]; hour 6 after ingestion,816.4 Millisecond
same,Sternberg Mean Response Time,[1]; hour 6 after ingestion,695.4
same,letter length 6 present reaction time (FIG. 20),[1]; hours 4 and 5,improved present reaction time
same,decrease of mean response times in the Sternberg Test compared to baseline,"[1]; overall, vs baseline",3.9%
same,Trial #2 reaction time (FIG. 11),[2],maintained reaction time
same,Trial #10 reaction time (FIG. 12),[2],no significant time or between treatment differences
same,effect on average reaction times in the vigilance task test,[2],no effect
same,Reaction Time (milliseconds) Average,[2]; Mean (SEM) over all hours,"2,550 milliseconds"
same,Reaction Time (milliseconds) Trial #2,[2]; Mean (SEM) over all hours,"2,659 milliseconds"
same,Reaction Time (milliseconds) Trial #10,[2]; Mean (SEM) over all hours,"2,639 milliseconds"
same,Reaction Time (milliseconds) Trial #20,[2]; Mean (SEM) over all hours,"2,590 milliseconds"
same,Reaction Time (milliseconds) Average,[2]; hour 0 (before ingestion),"2,546 milliseconds"
same,Reaction Time (milliseconds) Trial #2,[2]; hour 0 (before ingestion),"2,601 milliseconds"
same,Reaction Time (milliseconds) Trial #10,[2]; hour 0 (before ingestion),"2,607 milliseconds"
same,Reaction Time (milliseconds) Trial #20,[2]; hour 0 (before ingestion),"2,680 milliseconds"
same,Reaction Time (milliseconds) Average,[2]; hour 1 after ingestion,"2,552 milliseconds"
same,Reaction Time (milliseconds) Trial #2,[2]; hour 1 after ingestion,"2,602 milliseconds"
same,Reaction Time (milliseconds) Trial #10,[2]; hour 1 after ingestion,"2,418 milliseconds"
same,Reaction Time (milliseconds) Trial #20,[2]; hour 1 after ingestion,"2,458 milliseconds"
same,Reaction Time (milliseconds) Average,[2]; hour 2 after ingestion,"2,508 milliseconds"
same,Reaction Time (milliseconds) Trial #2,[2]; hour 2 after ingestion,"3,005 milliseconds"
same,Reaction Time (milliseconds) Trial #10,[2]; hour 2 after ingestion,"2,651 milliseconds"
same,Reaction Time (milliseconds) Trial #20,[2]; hour 2 after ingestion,"2,220 milliseconds"
same,Reaction Time (milliseconds) Average,[2]; hour 3 after ingestion,"2,559 milliseconds"
same,Reaction Time (milliseconds) Trial #2,[2]; hour 3 after ingestion,"2,591 milliseconds"
same,Reaction Time (milliseconds) Trial #10,[2]; hour 3 after ingestion,"2,788 milliseconds"
same,Reaction Time (milliseconds) Trial #20,[2]; hour 3 after ingestion,"2,445 milliseconds"
same,Reaction Time (milliseconds) Average,[2]; hour 4 after ingestion,"2,538 milliseconds"
same,Reaction Time (milliseconds) Trial #2,[2]; hour 4 after ingestion,"3,005 milliseconds"
same,Reaction Time (milliseconds) Trial #10,[2]; hour 4 after ingestion,"2,412 milliseconds"
same,Reaction Time (milliseconds) Trial #20,[2]; hour 4 after ingestion,"2,792 milliseconds"
same,Reaction Time (milliseconds) Average,[2]; hour 5 after ingestion,"2,570 milliseconds"
same,Reaction Time (milliseconds) Trial #2,[2]; hour 5 after ingestion,"2,441 milliseconds"
same,Reaction Time (milliseconds) Trial #10,[2]; hour 5 after ingestion,"2,783 milliseconds"
same,Reaction Time (milliseconds) Trial #20,[2]; hour 5 after ingestion,"2,544 milliseconds"
same,Reaction Time (milliseconds) Average,[2]; hour 6 after ingestion,"2,577 milliseconds"
same,Reaction Time (milliseconds) Trial #2,[2]; hour 6 after ingestion,"2,360 milliseconds"
same,Reaction Time (milliseconds) Trial #10,[2]; hour 6 after ingestion,"2,813 milliseconds"
same,Reaction Time (milliseconds) Trial #20,[2]; hour 6 after ingestion,"3,005 milliseconds"
same,LD50,[3],1600 mg/kg
